In ChEMBL document CHEMBL1201862, “PubChem BioAssay data set” (2004):
Activity calls are given as the source filed them.

Legend:
[1] = target: T1, Corticotropin-releasing factor receptor 2/Corticotropin-releasing factor-binding protein (Homo sapiens, UniProt P24387+Q13324); experiment: Dose Response confirmation of uHTS hits for small molecule antagonists of the CRF-binding protein and CRF-R2 receptor complex.; assay type: functional; conditions: read-out: IC50_Mean
T1 sequence (Q13324 whole entry): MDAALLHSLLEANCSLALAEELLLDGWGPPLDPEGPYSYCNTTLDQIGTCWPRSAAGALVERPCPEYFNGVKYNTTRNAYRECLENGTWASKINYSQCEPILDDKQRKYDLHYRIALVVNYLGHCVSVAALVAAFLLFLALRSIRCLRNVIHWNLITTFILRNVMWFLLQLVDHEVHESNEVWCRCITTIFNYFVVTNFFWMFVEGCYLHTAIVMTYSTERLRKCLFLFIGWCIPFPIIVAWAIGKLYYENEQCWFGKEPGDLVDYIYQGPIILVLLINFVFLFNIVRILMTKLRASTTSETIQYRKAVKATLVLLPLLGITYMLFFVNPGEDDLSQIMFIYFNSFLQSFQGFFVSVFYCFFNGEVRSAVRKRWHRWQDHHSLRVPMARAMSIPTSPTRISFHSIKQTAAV
T1 sequence (P24387 whole entry): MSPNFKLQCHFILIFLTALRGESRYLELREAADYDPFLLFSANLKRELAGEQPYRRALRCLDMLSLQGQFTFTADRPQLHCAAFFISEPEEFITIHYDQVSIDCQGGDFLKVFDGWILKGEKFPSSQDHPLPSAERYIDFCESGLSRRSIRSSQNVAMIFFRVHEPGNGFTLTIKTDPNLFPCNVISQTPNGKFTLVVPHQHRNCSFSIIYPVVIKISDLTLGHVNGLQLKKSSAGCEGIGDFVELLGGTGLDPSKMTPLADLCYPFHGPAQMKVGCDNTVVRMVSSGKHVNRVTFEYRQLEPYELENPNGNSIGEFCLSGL

[2] = target: T1, Corticotropin-releasing factor receptor 2/Corticotropin-releasing factor-binding protein; experiment: activators of CRF receptor 2 with binding protein – uHTS hits, confirmation (AID 602473); assay type: functional; conditions: read-out: EC50_Mean
Fatty acid synthase [3] = target: T2, Fatty acid synthase (Homo sapiens, UniProt P49327); experiment: inhibition of human FAS-TE enzyme activity – biochemical, kinetic fluorescence intensity, dose response (AID 624326); assay type: functional;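 further: rate of fluorescence rise from hydrolysis of a fluorogenic O-methyl fluorescein ester substrate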
[4] = test system: Streptococcus sp. 'group A'; experiment: Streptococcus pyogenes SK(-)GAS viability under kanamycin – luminescence, BacTiterGlo, confirmation, counter-screen for streptokinase expression inhibitor project, dose response (AID 1900); assay type: functional, organism-based
Streptokinase A = target: T3, Streptokinase A (Streptococcus pyogenes serotype M1, UniProt P10520); experiment: viability-normalized secreted streptokinase activity reduction – plasminogen activation absorbance, OD405, dose response (AID 1914); assay type: functional, Streptococcus pyogenes M1 GAS;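 further: secreted streptokinase activity via plasminogen activation per viability signal from cell pellet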
T3 sequence (P10520 whole entry): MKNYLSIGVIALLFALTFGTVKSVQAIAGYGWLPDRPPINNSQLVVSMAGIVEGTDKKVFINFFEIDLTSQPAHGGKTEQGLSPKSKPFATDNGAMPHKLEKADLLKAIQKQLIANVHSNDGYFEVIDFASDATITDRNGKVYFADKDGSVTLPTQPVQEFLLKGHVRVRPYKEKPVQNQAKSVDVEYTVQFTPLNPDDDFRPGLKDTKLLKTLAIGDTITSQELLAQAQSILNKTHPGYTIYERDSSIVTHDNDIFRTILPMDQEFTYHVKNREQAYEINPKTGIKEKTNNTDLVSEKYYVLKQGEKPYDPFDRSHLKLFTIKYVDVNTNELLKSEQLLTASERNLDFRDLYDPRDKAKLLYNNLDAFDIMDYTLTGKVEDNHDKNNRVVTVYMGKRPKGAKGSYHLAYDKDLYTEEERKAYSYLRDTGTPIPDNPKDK

Streptococcus = experiment: GAS UMAA2166 growth inhibition – luminescence, BacTiterGlo, counter-screen for streptokinase expression inhibitor project, dose response (AID 1915); assay type: functional, organism-based;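 further: potency for reduction of bacterial viability or growth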
Fatty acid synthase [5] = target: T2, Fatty acid synthase; experiment: inhibition of human FAS-TE enzyme activity – biochemical, endpoint fluorescence intensity, uHTS hits, dose response (AID 624327); assay type: functional;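 further: fluorescence from hydrolysis of an O-methyl fluorescein acyl ester substrate by the enzyme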
Large T antigen = Large T antigen (Simian virus 40, UniProt P03070); assay type: functional, Betapolyomavirus macacae;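 further: Confirmatory-stage PubChem screen for compounds that inhibit SV40 T antigen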
[6] = target: T4, High affinity choline transporter 1 (Homo sapiens, UniProt Q9GZV3); experiment: human choline transporter blockers, potency – cell-based, 5-point CRC, membrane potential dye, dose response (AID 504840); assay type: functional
T4 sequence (Q9GZV3 whole entry): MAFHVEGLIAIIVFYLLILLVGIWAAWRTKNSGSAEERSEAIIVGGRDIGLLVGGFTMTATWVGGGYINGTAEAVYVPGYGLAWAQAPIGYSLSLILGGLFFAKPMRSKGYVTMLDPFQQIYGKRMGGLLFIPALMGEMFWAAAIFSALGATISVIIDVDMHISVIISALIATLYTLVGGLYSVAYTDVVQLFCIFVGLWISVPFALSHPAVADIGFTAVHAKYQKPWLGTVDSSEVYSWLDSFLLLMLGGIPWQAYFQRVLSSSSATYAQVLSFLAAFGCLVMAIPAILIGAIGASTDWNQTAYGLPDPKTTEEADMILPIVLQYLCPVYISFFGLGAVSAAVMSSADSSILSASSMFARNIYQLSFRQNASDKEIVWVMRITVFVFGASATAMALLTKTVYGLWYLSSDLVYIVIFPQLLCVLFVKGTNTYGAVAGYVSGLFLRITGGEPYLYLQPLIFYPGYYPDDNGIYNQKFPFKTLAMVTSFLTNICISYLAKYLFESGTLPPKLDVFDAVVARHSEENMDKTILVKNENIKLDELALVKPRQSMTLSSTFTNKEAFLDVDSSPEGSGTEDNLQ

[7] = Luminescence Cell-Based Dose Confirmation HTS to Identify Activators of 5'UTR Stem-Loop Driven Alpha-Synuclein mRNA Translation in H4 Neuroglioblastoma Cells. [Related pubchem assays: 1829 (Project Summary), 1814 (Primary HTS)]; assay type: functional
[8] = Luminescence Cell-Based Dose Response HTS to Identify Activators of Luciferase Translation or Activity in H4 […] Cells. [Related pubchem assays: 1829 (Project Summary), 1814 (Primary HTS)]; assay type: functional
H4 = experiment: Luminescence Cell-Based Dose Response HTS to Identify Activators of 5'UTR Stem-Loop Driven Prion Protein mRNA Translation in H4 Neuroglioblastoma Cells. [Related pubchem assays: 1829 (Project Summary), 1814 (Primary HTS)]; assay type: functional; conditions: Homo sapiens
Cytochrome P450 1A2 = target: T5, Cytochrome P450 1A2 (Homo sapiens, UniProt P05177);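 further: PubChem cytochrome P450 panel assay, CYP1A2 panel member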
T5 sequence (P05177 whole entry): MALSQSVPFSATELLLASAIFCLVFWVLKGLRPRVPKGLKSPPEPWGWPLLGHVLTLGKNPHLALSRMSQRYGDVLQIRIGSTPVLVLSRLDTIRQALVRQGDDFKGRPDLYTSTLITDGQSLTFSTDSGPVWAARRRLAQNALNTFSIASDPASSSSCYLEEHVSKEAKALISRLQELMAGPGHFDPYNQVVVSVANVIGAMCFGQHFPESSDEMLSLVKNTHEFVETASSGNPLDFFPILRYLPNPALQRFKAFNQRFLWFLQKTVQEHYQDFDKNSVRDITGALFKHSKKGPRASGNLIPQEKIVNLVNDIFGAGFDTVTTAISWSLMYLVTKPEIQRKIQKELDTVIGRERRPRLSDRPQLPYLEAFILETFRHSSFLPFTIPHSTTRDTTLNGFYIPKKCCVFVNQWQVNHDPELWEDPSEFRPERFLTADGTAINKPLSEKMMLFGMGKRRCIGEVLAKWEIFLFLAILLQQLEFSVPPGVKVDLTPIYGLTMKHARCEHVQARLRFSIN

Cytochrome P450 3A4 = Cytochrome P450 3A4 (Homo sapiens, UniProt P08684);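 further: CYP3A4 tested as one member of a cytochrome P450 panel screen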
Paired box protein Pax-8 = Paired box protein Pax-8 (Homo sapiens, UniProt Q06710); experiment: PAX8 transcriptional activity inhibition in RMG-I – RMG-I cells, luciferase, cherry-pick, dose response (AID 687027); assay type: functional, cell-based;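 further: luciferase reporter driven by Pax8 target thyroperoxidase promoter measured by SteadyGlo luminescence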
Chain of Paired box protein Pax-8 (Q06710 whole entry): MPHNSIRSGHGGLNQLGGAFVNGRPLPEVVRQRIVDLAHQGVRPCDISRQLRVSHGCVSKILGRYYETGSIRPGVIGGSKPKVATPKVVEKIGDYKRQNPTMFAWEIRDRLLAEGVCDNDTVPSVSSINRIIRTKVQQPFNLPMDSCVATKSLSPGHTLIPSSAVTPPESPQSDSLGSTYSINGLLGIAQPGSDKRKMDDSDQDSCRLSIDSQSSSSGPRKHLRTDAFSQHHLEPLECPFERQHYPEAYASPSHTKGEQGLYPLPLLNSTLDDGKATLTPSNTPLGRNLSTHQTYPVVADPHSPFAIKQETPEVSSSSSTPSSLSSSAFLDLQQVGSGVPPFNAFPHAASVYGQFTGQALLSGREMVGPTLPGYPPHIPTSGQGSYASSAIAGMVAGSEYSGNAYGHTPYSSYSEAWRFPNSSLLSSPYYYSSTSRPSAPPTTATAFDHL

T2 sequence (P49327 whole entry): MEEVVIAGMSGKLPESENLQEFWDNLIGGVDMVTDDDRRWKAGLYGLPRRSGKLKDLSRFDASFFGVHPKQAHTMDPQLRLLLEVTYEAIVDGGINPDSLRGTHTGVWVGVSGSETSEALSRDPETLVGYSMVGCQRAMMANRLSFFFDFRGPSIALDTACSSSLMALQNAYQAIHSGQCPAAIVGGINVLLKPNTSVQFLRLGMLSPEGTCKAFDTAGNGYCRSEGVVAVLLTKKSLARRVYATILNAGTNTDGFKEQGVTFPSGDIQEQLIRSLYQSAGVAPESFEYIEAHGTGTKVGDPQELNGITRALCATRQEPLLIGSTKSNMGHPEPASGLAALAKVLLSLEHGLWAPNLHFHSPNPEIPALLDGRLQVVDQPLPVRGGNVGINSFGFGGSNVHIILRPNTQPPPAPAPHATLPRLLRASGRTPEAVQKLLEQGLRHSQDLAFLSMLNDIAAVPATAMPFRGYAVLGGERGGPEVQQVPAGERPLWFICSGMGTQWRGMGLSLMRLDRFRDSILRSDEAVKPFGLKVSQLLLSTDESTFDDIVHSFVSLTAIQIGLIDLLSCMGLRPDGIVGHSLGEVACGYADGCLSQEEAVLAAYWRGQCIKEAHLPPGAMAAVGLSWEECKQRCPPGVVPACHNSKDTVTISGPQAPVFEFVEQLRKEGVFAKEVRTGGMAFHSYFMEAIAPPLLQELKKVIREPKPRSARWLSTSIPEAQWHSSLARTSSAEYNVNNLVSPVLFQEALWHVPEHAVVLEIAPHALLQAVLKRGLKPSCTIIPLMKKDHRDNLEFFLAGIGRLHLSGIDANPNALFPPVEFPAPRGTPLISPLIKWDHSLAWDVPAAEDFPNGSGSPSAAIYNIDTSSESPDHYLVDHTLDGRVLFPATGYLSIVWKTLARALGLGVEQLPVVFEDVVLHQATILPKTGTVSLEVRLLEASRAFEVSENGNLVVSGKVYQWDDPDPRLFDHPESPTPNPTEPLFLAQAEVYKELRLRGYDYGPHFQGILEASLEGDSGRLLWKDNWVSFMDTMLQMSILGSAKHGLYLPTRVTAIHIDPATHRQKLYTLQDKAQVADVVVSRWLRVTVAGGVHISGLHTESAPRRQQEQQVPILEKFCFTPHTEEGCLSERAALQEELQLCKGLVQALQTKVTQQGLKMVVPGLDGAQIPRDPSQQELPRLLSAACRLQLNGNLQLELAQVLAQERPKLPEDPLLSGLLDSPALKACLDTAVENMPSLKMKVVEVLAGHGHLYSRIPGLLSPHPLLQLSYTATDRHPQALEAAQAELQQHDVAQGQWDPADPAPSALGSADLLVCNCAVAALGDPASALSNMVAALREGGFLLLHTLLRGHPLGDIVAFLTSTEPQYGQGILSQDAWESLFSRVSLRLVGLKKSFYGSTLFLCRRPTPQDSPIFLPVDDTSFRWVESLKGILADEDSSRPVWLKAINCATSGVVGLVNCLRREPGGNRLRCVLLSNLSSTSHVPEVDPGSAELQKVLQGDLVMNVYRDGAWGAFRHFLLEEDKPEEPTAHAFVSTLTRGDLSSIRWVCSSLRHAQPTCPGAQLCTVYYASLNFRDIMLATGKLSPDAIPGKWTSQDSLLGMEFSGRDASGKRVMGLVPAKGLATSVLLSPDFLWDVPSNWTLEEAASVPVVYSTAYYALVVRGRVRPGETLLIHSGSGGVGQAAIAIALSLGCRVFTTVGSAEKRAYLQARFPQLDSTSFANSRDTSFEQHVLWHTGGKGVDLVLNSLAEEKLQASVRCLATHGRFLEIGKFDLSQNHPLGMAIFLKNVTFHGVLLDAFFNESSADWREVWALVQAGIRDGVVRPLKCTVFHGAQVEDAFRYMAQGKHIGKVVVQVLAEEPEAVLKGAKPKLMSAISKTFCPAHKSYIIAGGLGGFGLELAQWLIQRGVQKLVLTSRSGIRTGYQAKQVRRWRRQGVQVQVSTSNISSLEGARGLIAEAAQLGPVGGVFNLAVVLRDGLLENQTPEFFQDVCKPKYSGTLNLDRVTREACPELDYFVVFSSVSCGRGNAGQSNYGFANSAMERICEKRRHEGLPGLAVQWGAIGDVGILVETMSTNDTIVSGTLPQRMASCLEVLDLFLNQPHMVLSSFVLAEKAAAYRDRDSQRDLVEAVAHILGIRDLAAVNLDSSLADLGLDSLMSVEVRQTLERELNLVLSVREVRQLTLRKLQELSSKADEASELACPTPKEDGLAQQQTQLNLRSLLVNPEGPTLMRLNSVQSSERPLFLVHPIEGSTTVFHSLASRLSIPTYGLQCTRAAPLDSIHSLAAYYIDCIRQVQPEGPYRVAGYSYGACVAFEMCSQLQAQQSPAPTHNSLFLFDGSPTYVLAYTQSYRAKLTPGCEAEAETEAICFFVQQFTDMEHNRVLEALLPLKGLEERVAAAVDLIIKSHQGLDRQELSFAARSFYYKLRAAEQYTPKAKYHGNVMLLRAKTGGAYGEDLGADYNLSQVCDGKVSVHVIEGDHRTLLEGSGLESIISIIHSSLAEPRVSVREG
Chain of Large T antigen (P03070 whole entry): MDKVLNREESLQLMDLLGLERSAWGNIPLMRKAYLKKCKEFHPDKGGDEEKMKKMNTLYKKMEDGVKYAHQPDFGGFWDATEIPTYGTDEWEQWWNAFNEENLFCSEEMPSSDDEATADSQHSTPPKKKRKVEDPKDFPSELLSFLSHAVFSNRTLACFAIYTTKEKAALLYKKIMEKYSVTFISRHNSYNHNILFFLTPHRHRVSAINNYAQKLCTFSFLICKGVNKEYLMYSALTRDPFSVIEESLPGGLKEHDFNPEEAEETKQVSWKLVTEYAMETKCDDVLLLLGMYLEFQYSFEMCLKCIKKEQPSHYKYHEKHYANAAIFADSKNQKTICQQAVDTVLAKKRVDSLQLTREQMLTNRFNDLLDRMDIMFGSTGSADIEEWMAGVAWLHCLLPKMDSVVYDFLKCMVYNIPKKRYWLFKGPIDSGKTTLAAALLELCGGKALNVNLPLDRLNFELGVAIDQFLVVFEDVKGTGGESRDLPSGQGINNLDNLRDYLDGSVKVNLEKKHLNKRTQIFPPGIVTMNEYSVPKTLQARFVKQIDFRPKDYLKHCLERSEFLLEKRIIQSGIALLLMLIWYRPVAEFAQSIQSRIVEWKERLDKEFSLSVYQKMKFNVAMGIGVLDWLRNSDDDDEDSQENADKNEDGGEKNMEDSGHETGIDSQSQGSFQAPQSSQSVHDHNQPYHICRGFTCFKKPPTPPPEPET
Chain of Cytochrome P450 3A4 (P08684 whole entry): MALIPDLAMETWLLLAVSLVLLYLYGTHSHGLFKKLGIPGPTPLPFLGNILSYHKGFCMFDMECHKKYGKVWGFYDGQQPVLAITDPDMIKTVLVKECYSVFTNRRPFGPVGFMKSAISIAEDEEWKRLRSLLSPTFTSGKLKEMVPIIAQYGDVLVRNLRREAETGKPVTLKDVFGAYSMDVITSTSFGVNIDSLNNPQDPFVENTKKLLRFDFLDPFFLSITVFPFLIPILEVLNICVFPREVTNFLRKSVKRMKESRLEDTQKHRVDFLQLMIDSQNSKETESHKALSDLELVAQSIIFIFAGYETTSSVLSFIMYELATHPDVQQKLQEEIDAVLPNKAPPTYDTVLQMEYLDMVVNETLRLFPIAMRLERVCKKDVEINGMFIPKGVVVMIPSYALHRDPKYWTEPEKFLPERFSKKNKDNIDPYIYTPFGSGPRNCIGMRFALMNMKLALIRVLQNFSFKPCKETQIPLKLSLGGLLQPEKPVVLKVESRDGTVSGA

In the case of CCCC(=O)NC(C)c1nc2ccccc2[nH]1 (stereo unspecified), the IC50 [1] is reported as > 47.1 µM (inactive) and the EC50 [2] is reported as > 53 µM (inactive).

With Cc1cc(C)n(CCC(=O)N=Nc2c(O)[nH]c3ccc(Br)cc23)n1 the IC50 [1] was > 47.1 µM (inactive) and the EC50 [2] was > 53 µM (inactive).

With O=C(COc1cccc(Oc2ccccc2)c1)Nc1ccc(SC(F)F)cc1 the IC50 (Fatty acid synthase [3]) was 2.43 µM (active), the EC50 [4] was 14.4 µM (active) and the EC50 (Streptokinase A) was 17.5 µM (active). For the same molecule, the EC50 (Streptococcus) was > 150 µM (not active) and the IC50 (Fatty acid synthase [5]) was 4.12 µM (active).

For CCOc1ccc(CCNC(=O)c2cccc(NC3=NC4CS(=O)(=O)CC4S3)c2)cc1OCC (stereo unspecified), the IC50 [1] was > 47.1 µM (inactive) and the EC50 [2] was > 53 µM (inactive).

For COc1cc(OC)cc(C(=O)Nc2nc(CC(=O)NCc3ccccc3OC)cs2)c1, the EC50 [4] was > 150 µM (not active), the EC50 (Streptokinase A) was > 150 µM (not active) and the EC50 (Streptococcus) was > 150 µM (not active).

For C=CCN=C(S)Nc1ccc(N(C)C)cc1, the IC50 (Large T antigen) was 3.24 µM (active).

For O=C(COc1ccccc1-c1ccccc1)NNC(=O)NC1CCCCC1, the IC50 [6] was 15.8 µM (active), the EC50 [7] was > 120 µM (not active) and the EC50 [8] was > 120 µM (not active). The EC50 (H4) was > 120 µM (not active).

For CSCC[C@H](NC(=O)c1nn(C)c(=O)c2ccccc12)c1nc2ccccc2[nH]1, the AC50 (Cytochrome P450 1A2) was 17.8 µM (inconclusive), the EC50 [4] was 1.06 µM (active) and the AC50 (Cytochrome P450 3A4) was 12.6 µM (inconclusive). The EC50 (Streptokinase A) was > 150 µM (not active) and the EC50 (Streptococcus) was 19.8 µM (active).

With O=C(Nc1cccc([N+](=O)[O-])c1)NC1CCCCCCC1 the IC50 (Fatty acid synthase [3]) was 15.2 µM (active) and the IC50 (Fatty acid synthase [5]) was 14.8 µM (active).

For CC1CN(Cc2nc3c(c(=O)[nH]c(=O)n3C)n2CCCc2ccccc2)CC(C)O1 (stereo unspecified), the EC50 [4] was > 150 µM (not active), the EC50 (Streptokinase A) was > 150 µM (not active) and the EC50 (Streptococcus) was > 150 µM (not active).

With COc1cc(N(C)C)c([N+](=O)[O-])cc1C(=O)NC(C)CNc1ccc([N+](=O)[O-])cc1Cl (stereo unspecified) the IC50 (Fatty acid synthase [3]) was 5.79 µM (active) and the IC50 (Fatty acid synthase [5]) was 6.26 µM (active).

With CSCC[C@H](NC(=O)c1ccc(Cl)c([N+](=O)[O-])c1)c1nc2ccccc2[nH]1 the IC50 (Fatty acid synthase [3]) was 6.14 µM (active) and the IC50 (Fatty acid synthase [5]) was 11.1 µM (active).

For COc1cc(CNc2ccc(N3CCCCC3)cc2)ccc1OCC(=O)NC(C)(C)C, the IC50 [6] was 6.55 µM (active) and the IC50 (Large T antigen) was 12.5 µM (active).

In the case of O=C1NC(=S)S/C1=C/c1ccc(N2CCOCC2)o1, the IC50 (Large T antigen) is reported as 18.4 µM (active).

With Cc1cccc2c(CCNC(=O)c3ccc([N+](=O)[O-])cc3)c[nH]c12 the IC50 [1] was > 47.1 µM (inactive) and the EC50 [2] was > 53 µM (inactive).

In the case of CN1CC(=O)N(CC(=O)N2CCC(Cc3ccccc3)CC2)C1=O, the IC50 [1] is reported as > 47.1 µM (inactive) and the EC50 [2] is reported as > 53 µM (inactive).

In the case of COc1ccc(N2CCN(C(=O)c3cc(C)oc3C)CC2)cc1, the EC50 [4] is reported as > 150 µM (not active), the EC50 (Streptokinase A) is reported as > 150 µM (not active) and the EC50 (Streptococcus) is reported as > 150 µM (not active).

With CCOC(=O)c1ccc(NC(=O)CN2C(=O)CSC2=O)cc1 the IC50 [1] was > 47.1 µM (inactive) and the EC50 [2] was > 53 µM (inactive).

For CCn1c(SCC(=O)Nc2ccc(N(C)C)cc2)nnc1C1CC1, the IC50 (Large T antigen) was 9.49 µM (active).

With CC(C)c1ccc(CSc2ccc(S(=O)(=O)N3CCOCC3)cn2)cc1 the IC50 (Fatty acid synthase [3]) was 7.91 µM (active) and the IC50 (Fatty acid synthase [5]) was 5.98 µM (active).

With CCc1ccc(C(=O)COC(=O)c2cc([N+](=O)[O-])ccc2N2CCOCC2)cc1 the IC50 (Fatty acid synthase [3]) was 2.16 µM (active) and the IC50 (Fatty acid synthase [5]) was 1.75 µM (active).

For C[C@@H]1CN([C@@H](C)CO)C(=O)Cc2cc(NC(=O)CCC(F)(F)F)ccc2O[C@H]1CN(C)Cc1ccc(-c2ccccc2)cc1, the AC50 (Paired box protein Pax-8) was 8.61 µM (active).

With Cc1ccc(S(=O)(=O)N(C)C[C@@H]2Oc3c(NC(=O)c4ccc(-c5nccs5)cc4)cccc3C(=O)N([C@@H](C)CO)C[C@@H]2C)cc1 the AC50 (Paired box protein Pax-8) was 18.3 µM (active).

With CC(=NNc1cc(C)c2ccccc2n1)c1ccccn1 the AC50 (Paired box protein Pax-8) was 7.4 µM (active).

With CC(C)C(=O)c1ccc(O)c(O)c1 the IC50 (Large T antigen) was 30.9 µM (active).

With COc1ccc(S(=O)(=O)Nc2nc3ccccc3nc2NCc2ccc3c(c2)OCO3)cc1 the IC50 [1] was > 47.1 µM (inactive) and the EC50 [2] was > 53 µM (inactive).
